Results on 19 compounds are retold here after patent US10604535B2, “Compounds, compositions and methods” (Denali Therapeutics Inc., priority 2016, dated 2020).

Broadly, the IC50 is the point on the concentration scale where inhibition reaches its midpoint.

The subject of assay [1] is FADD-deficient Jurkat cells. Briefly: Cellular necroptosis assay (human TNFα-induced necrosis, CellTiter-Glo). The format is cell-based. As to conditions: Homo sapiens, Jurkat, 48 h, TNFα 10 ng/mL, read-out: Cell IC50. (In general: ATP-based viability assays read luminescence as a measure of living cells.)
Assay [2] deals with GST-hRIPK1 (8-327) (Homo sapiens (Human), UniProt Q13546). In words: Fluorescent Polarization Binding (FP Binding) assay.
Sequence of GST-hRIPK1 (8-327) (Q13546 8-327): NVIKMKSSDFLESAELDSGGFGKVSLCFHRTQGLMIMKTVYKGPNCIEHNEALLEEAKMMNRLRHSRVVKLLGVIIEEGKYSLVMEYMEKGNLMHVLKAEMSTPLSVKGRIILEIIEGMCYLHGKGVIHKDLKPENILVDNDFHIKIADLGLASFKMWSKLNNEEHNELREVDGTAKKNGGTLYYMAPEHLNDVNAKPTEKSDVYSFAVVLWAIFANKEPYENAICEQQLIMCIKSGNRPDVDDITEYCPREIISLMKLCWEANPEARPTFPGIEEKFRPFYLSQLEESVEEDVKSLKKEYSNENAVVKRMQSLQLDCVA

With `C[C@H]1Oc2cc(C#N)cnc2N(C)C(=O)[C@H]1NC(=O)c1nnc(Cc2ccccc2)[nH]1` [Example 150, 5-benzyl-N-((2R,3S)-8-cyano-2,5-dimethyl-4-oxo-2,3,4,5-tetrahydropyrido[3,2-b][1,4]oxazepin-3-yl)-4H-1,2,4-triazole-3-carboxamide], the IC50 in assay [1] and in assay [2] was 0.1 to 1000 nM each time.

As to `Cc1ncccc1Cn1cc(F)c(C(=O)N[C@H]2CCc3nccnc3N(C)C2=O)n1` [Example 182B, (S)-4-fluoro-N-(5-methyl-6-oxo-6,7,8,9-tetrahydro-5H-pyrazino[2,3-b]azepin-7-yl)-1-((2-methylpyridin-3-yl)methyl)-1H-pyrazole-3-carboxamide], the half-maximal inhibitory concentration (IC50) in assay [1] and in assay [2] was 0.1 to 1000 nM in each case.

`CN1C(=O)[C@@H](NC(=O)c2ncc(C3(c4ccccc4)CC3)[nH]2)COc2cccnc21` [Example 99, (S)—N-(5-methyl-4-oxo-2,3,4,5-tetrahydropyrido[3,2-b][1,4]oxazepin-3-yl)-5-(1-phenylcyclopropyl)-1H-imidazole-2-carboxamide]: the IC50 fell in the range of 0.1 to 1000 nM in assay [1] and 1000 to 10000 nM in assay [2].

As to `CN1C(=O)[C@@H](NC(=O)c2cc(Oc3ccccc3F)cnn2)COc2cccnc21` [Example 149, (S)-5-(2-fluorophenoxy)-N-(5-methyl-4-oxo-2,3,4,5-tetrahydropyrido[3,2-b][1,4]oxazepin-3-yl)pyridazine-3-carboxamide], the IC50 in assay [1] and in assay [2] was 0.1 to 1000 nM in each case.

In the case of `Cc1c(Cl)c(C(=O)N[C@H]2COc3ccccc3N(C)C2=O)nn1Cc1ccccc1` [Example 4, (S)-1-benzyl-4-chloro-5-methyl-N-(5-methyl-4-oxo-2,3,4,5-tetrahydrobenzo[b][1,4]oxazepin-3-yl)-1H-pyrazole-3-carboxamide], the IC50 in assay [1] and in assay [2] was 0.1 to 1000 nM each time.

In the case of `C[C@H]1Oc2cccnc2N(C)C(=O)[C@H]1NC(=O)c1nn(Cc2ccccc2)cc1Cl` [Example 132, 1-Benzyl-4-chloro-N-((2R,3S)-2,5-dimethyl-4-oxo-2,3,4,5-tetrahydropyrido[3,2-b][1,4]oxazepin-3-yl)-1H-pyrazole-3-carboxamide], the IC50 in assay [1] and in assay [2] was 0.1 to 1000 nM in each case.

Take `CN1C(=O)[C@@H](NC(=O)c2nn(Cc3cccc(C#N)c3)cc2F)CCc2cccnc21` [Example 152B, (S)-1-(3-cyanobenzyl)-4-fluoro-N-(9-methyl-8-oxo-6,7,8,9-tetrahydro-5H-pyrido[2,3-b]azepin-7-yl)-1H-pyrazole-3-carboxamide]: the IC50 in assay [1] and in assay [2] was 0.1 to 1000 nM throughout.

`CN1C(=O)[C@@H](NC(=O)c2nn(Cc3ccccc3)cc2F)CCc2cccnc21` [Example 111B, (S)-1-benzyl-4-fluoro-N-(9-methyl-8-oxo-6,7,8,9-tetrahydro-5H-pyrido[2,3-b]azepin-7-yl)-1H-pyrazole-3-carboxamide]: the IC50 in assay [1] and in assay [2] was 0.1 to 1000 nM each time.

For `CN1C(=O)[C@@H](NC(=O)c2nnc(Cc3ccccc3)o2)C2(CC2)Oc2cccnc21` [Example 160A, (S)-5-benzyl-N-(5′-methyl-4′-oxo-4′,5′-dihydro-3′H-spiro[cyclopropane-1,2′-pyrido[3,2-b][1,4]oxazepin]-3′-yl)-1,3,4-oxadiazole-2-carboxamide], the IC50 in assay [1] and in assay [2] was 0.1 to 1000 nM each time.

In the case of `CN1C(=O)[C@@H](NC(=O)c2nnc(Cc3ccccc3)[nH]2)CCc2nn(C)cc21` [Example 105A, (S)-5-benzyl-N-(2,4-dimethyl-5-oxo-2,4,5,6,7,8-hexahydropyrazolo[4,3-b]azepin-6-yl)-4H-1,2,4-triazole-3-carboxamide], the IC50 in assay [1] and in assay [2] was 0.1 to 1000 nM throughout.

`CN1C(=O)[C@@H](NC(=O)c2nn(Cc3cncc(F)c3)cc2F)COc2cccnc21` [Example 137, (S)-4-Fluoro-1-((5-fluoropyridin-3-yl)methyl)-N-(5-methyl-4-oxo-2,3,4,5-tetrahydropyrido[3,2-b][1,4]oxazepin-3-yl)-1H-pyrazole-3-carboxamide]: the IC50 in assay [1] and in assay [2] was 0.1 to 1000 nM each time.

For the compound `CN1C(=O)[C@@H](NC(=O)c2nn(Cc3cncc(C#N)c3)cc2F)COc2cccnc21` [Example 168, (S)-1-((5-cyanopyridin-3-yl)methyl)-4-fluoro-N-(5-methyl-4-oxo-2,3,4,5-tetrahydropyrido[3,2-b][1,4]oxazepin-3-yl)-1H-pyrazole-3-carboxamide], the IC50 in assay [1] and in assay [2] was 0.1 to 1000 nM each time.

For the compound `CN1C(=O)[C@@H](NC(=O)c2cc(F)n(Cc3ccc(F)cc3)n2)COc2cccnc21` [Example 166, (S)-5-fluoro-1-(4-fluorobenzyl)-N-(5-methyl-4-oxo-2,3,4,5-tetrahydropyrido[3,2-b][1,4]oxazepin-3-yl)-1H-pyrazole-3-carboxamide], the IC50 in assay [1] and in assay [2] was 0.1 to 1000 nM throughout.

As to `O=C(N[C@H]1CCc2ccccc2-n2ccnc21)c1cc(Oc2ccccc2F)cnn1` [Example 116, (S)—N-(5,6-dihydro-4H-benzo[f]imidazo[1,2-a]azepin-4-yl)-5-(2-fluorophenoxy)pyridazine-3-carboxamide], the IC50 in assay [1] and in assay [2] was 0.1 to 1000 nM in each case.

Turning to `CN1C(=O)[C@@H](NC(=O)c2nnc(C3(c4ccccc4)CC3)o2)CCc2cccnc21` [Example 145A, (S)—N-(9-methyl-8-oxo-6,7,8,9-tetrahydro-5H-pyrido[2,3-b]azepin-7-yl)-5-(1-phenylcyclopropyl)-1,3,4-oxadiazole-2-carboxamide], the IC50 in assay [1] and in assay [2] was 0.1 to 1000 nM each time.

For `C[C@H]1Oc2cc(S(C)(=O)=O)cnc2N(C)C(=O)[C@H]1NC(=O)c1nnc(Cc2ccccc2)[nH]1` [Example 147, 5-benzyl-N-((2R,3S)-2,5-dimethyl-8-(methylsulfonyl)-4-oxo-2,3,4,5-tetrahydropyrido[3,2-b][1,4]oxazepin-3-yl)-4H-1,2,4-triazole-3-carboxamide], the IC50 in assay [1] and in assay [2] was 0.1 to 1000 nM throughout.

With `CN1C(=O)[C@@H](NC(=O)c2nn(Cc3ccccc3F)cc2F)CCc2nccnc21` [Example 178A, (S)-4-fluoro-1-(2-fluorobenzyl)-N-(5-methyl-6-oxo-6,7,8,9-tetrahydro-5H-pyrazino[2,3-b]azepin-7-yl)-1H-pyrazole-3-carboxamide], the IC50 in assay [1] and in assay [2] was 0.1 to 1000 nM throughout.

In the case of `CN1C(=O)[C@@H](NC(=O)c2nnc(Cc3ccccc3)[nH]2)CC2(CC2)c2cccnc21` [Example 125B, (S)-5-benzyl-N-(9′-methyl-8′-oxo-6′,7′,8′,9′-tetrahydrospiro[cyclopropane-1,5′-pyrido[2,3-b]azepin]-7′-yl)-4H-1,2,4-triazole-3-carboxamide], the IC50 in assay [1] and in assay [2] was 0.1 to 1000 nM each time.

With `CN1C(=O)[C@@H](NC(=O)c2nn(Cc3ccccc3F)cc2F)COc2cccnc21` [Example 133, (S)-4-Fluoro-1-(2-fluorobenzyl)-N-(5-methyl-4-oxo-2,3,4,5-tetrahydropyrido[3,2-b][1,4]oxazepin-3-yl)-1H-pyrazole-3-carboxamide], the IC50 in assay [1] and in assay [2] was 0.1 to 1000 nM throughout.
